This note sets out measurements from patent EP2334184B1, “FUNGICIDAL MIXTURE, CONTAINING FENPROPIDIN AND PENCONAZOLE” (Syngenta Participations AG, priority 2008, dated 2010).

In series [1] the test system is rose varieties. Kind of series: Crop safety trials in Holland during the winter / dark season. It is filed as in vivo. As to the method: The following trials were conducted in Holland during the winter period / dark season, when the total light radiation level is less than 2000 W/m^2 per day.
(§1) These treatments were applied to 8 different rose varieties, and phytotoxicity assessments made at 7 day intervals. A phytotoxicity score of greater than 2.0% indicates unacceptable phytotoxicity; a score of 1.0 to 2.0% is acceptable (but not ideal); a score of less than 1.0% is good.

Series [2] has as its system rose varieties. Kind of series: Crop safety trials in Holland in April (summer trials). It is filed as in vivo. The settings on record: Cv. Red Naomi. As for the experimental part: as §1
Corresponding trials were conducted using selected treatments from table 9 above, in Holland in April, when the total light radiation level is above 2000 W/m^2 per day.

The mark [3] stands for this setting: Cv. Grand Prix, 7DAA1 (7 days after first application).
Where [4] appears, read: Cv. Grand Prix, <2000 W/m^2 per day, 0DAA0.

The structures appear in SMILES notation.

Consider `CCCC(Cn1cncn1)c1ccc(Cl)cc1Cl` (stereo not drawn) [Treatment 9], for which the “Percentage phytotoxicity (%)” value in series [1] (setting [3]) worked out at 0.0%; in series [1] (Cv. Grand Prix, 7DAA2), 0.0%; in series [1] (Cv. Grand Prix, 7DAA3), 4.0%; in series [1] (Cv. Grand Prix, 14DAA3), 2.0%; in series [1] (Cv. Grand Prix, 21DAA3), 0.3%; in series [1] (setting [4]), 0.0%. Moreover, the “Percentage phytotoxicity (%)” value was 0.0% in series [1] (Cv. Red Naomi, 0DAA0); 1.7% in series [1] (Cv. Red Naomi, 6DAA2); 2.7% in series [1] (Cv. Red Naomi, 7DAA1); 3.0% in series [1] (Cv. Red Naomi, 7DAA3); 0.7% in series [1] (Cv. Red Naomi, 18DAA3).

Turning to `CCCC(Cn1cncn1)c1ccc(Cl)cc1Cl` (stereo not drawn) [Treatment 8], the “Percentage phytotoxicity (%)” value in series [2] (7DAA1) is given as 0.0%; in series [2] (7DAA2) it was 0.0%; in series [2] (7DAA3), 0.0%; in series [2] (14DAA3), 0.0%; in series [2] (>2000 W/m^2 per day, 0DAA0), 0.0%; in series [1] (setting [3]) it was 0.0%. Besides, the “Percentage phytotoxicity (%)” value in series [1] (Cv. Grand Prix, 7DAA2) is reported as 0.0%; in series [1] (Cv. Grand Prix, 7DAA3), 1.3%; in series [1] (Cv. Grand Prix, 14DAA3), 0.0%; in series [1] (Cv. Grand Prix, 21DAA3), 0.0%; in series [1] (setting [4]), 0.0%; in series [1] (Cv. Red Naomi, 0DAA0) it was 0.0%. Besides, the “Percentage phytotoxicity (%)” value was 0.7% in series [1] (Cv. Red Naomi, 6DAA2); 1.3% in series [1] (Cv. Red Naomi, 7DAA1); 0.7% in series [1] (Cv. Red Naomi, 7DAA3); 0.0% in series [1] (Cv. Red Naomi, 18DAA3).
